This is an account of results in patent publication US20260365673A1, “PYRROLO[2,3-D]PYRIMIDIN-4-AMINE DERIVATIVE AND USE THEREOF IN MEDICINE” (HAISCO PHARMACEUTICAL GROUP CO., LTD., priority 2023, published 2026).

Molecules are shown by their SMILES.

Data set [1] in a line: Pharmacokinetic Test in Rats (Inhalation Administration). The note with it: rat, in vivo, inhaled or intranasal, male SD rats, single dose 0.03 mg/kg; for Cmax / AUC(0-t): lung tissue; for AUC(0-t): read-out: Lung AUC0-t; for Kp: read-out: Lung AUC0-t/plasma AUC0-t. Here is the method:
4: Pharmacokinetic Test in Rats (Inhalation Administration)
The samples were analyzed quantitatively by LC-MS/MS.

The conditions of data set [2]: 12-week, PATENT-1, riociguat group, cited from earlier work.

Consider `CC(C)(Cc1csc([C@]2(C)C(=O)Nc3nc(-n4nc(CCC(F)(F)C(F)(F)F)c5cc(Cl)ccc54)nc(N)c32)n1)C(=O)O` (single isomer, unassigned) [Compound 4-1], for which, in data set [1], the Cmax (commonly the highest concentration seen after dosing) was found to be 2350 ng/mL, the AUC(0-t) was 2460 ng·h/mL and the Kp turned out to be 77.1.
As to `CC(C)(Cc1csc(C2(C)C(=O)Nc3nc(-n4nc(Cc5ccccc5F)c5ncc(F)cc54)nc(N)c32)n1)C(=O)O` (single isomer, unassigned) [Compound 35-1], in data set [1], the highest level (Cmax) was 2540 ng/mL and the AUC(0-t) was determined as 5430 ng·h/mL.
As for `CC(C)(Cc1csc(C2(C)C(=O)Nc3nc(-n4nc(Cc5cccc(F)c5F)c5ncc(F)cc54)nc(N)c32)n1)C(=O)O` (single isomer, unassigned) [Compound 36-1], in data set [1], the Cmax came out at 4070 ng/mL, the AUC(0-t) turned out to be 10100 ng·h/mL and the Kp is 49.1.
As for `CC(C)(Cc1csc(C2(C)C(=O)Nc3nc(-n4nc(CCC(F)(F)C(F)(F)F)c5ncc(F)cc54)nc(N)c32)n1)C(=O)O` (single isomer, unassigned) [Compound 37-1], in data set [1], the highest concentration (Cmax) turned out to be 1730 ng/mL and the AUC(0-t) stood at 3280 ng·h/mL.
Take `CC(C)(Cc1csc([C@]2(C)C(=O)Nc3nc(-c4nc(CCC(F)(F)C(F)(F)F)n5ncccc45)nc(N)c32)n1)C(=O)O` [Compound 3-1]: in data set [1], the Cmax stood at 2980 ng/mL, the AUC(0-t) came to 3630 ng·h/mL and the Kp came out at 65.
The corresponding values for `CC(C)(Cc1cccc([C@@]2(C)C(=O)Nc3nc(-c4nn(CCC(F)(F)C(F)(F)F)c5cc(Cl)cnc45)nc(N)c32)c1)C(=O)O` [Compound 6-1] are 2820 ng/mL, 5170 ng·h/mL and 659.
Turning to `CC(C)(Cc1csc([C@]2(C)C(=O)Nc3nc(-n4nc(CCC(F)(F)C(F)(F)F)c5cc(F)ccc54)nc(N)c32)n1)C(=O)O` [Compound 17-1], in data set [1], the peak level (Cmax) was 1750 ng/mL, the AUC(0-t) turned out to be 2020 ng·h/mL and the Kp was determined as 48.4.
The matching figures for `CC(C)(Cc1csc([C@]2(C)C(=O)Nc3nc(-c4nc(Cc5ccccc5F)n5ncccc45)nc(N)c32)n1)C(=O)O` [Compound 19-1]: 2840 ng/mL, 12200 ng·h/mL and 245.
The matching figures for `CC(C)(Cc1csc([C@]2(C)C(=O)Nc3nc(-n4c(=O)n(CCC(F)(F)C(F)(F)F)c5cc(F)ccc54)nc(N)c32)n1)C(=O)O` [Compound 31-1]: 1180 ng/mL, 608 ng·h/mL and 97.9.
Consider `CC(C)(Cc1csc([C@]2(C)C(=O)Nc3nc(-n4c(=O)n(Cc5ccccc5F)c5cc(F)ccc54)nc(N)c32)n1)C(=O)O` [Compound 38-1], for which, in data set [1], the highest concentration (Cmax) worked out at 1740 ng/mL and the Kp was found to be 83.6.
As to `CC(C)(Cc1csc([C@]2(C)C(=O)Nc3nc(-c4nc(CCC(F)(F)C(F)(F)F)n5cc(F)ccc45)nc(N)c32)n1)C(=O)O` [Compound 45-1], in data set [1], the highest concentration (Cmax) is 2850 ng/mL, the AUC(0-t) stood at 4500 ng·h/mL and the Kp amounted to 43.4.
In the case of `CC(C)(Cc1csc([C@]2(C)C(=O)Nc3nc(-c4nn(CCC(F)(F)C(F)(F)F)c5ncccc45)nc(N)c32)n1)C(=O)O` [Control compound 1, reference compound], in data set [1], the Cmax was determined as 273 ng/mL and the AUC(0-t) turned out to be 220 ng·h/mL.
On to `COC(=O)N(C)c1c(N)nc(-c2nn(Cc3ccccc3F)c3ncccc23)nc1N` [riociguat, Riociguat], for which, in data set [2] (placebo 2%), the anemia is on record as 7% and the gastroesophageal reflux disease is reported as 5%. Also, the diarrhea in data set [2] (placebo 8%) was 12%.
